Where two headings read alike, the source gives them in different places.

We go through ten compounds from patent US12098145B2 (Libra Therapeutics, Inc., priority 2022, dated 2024).

The target of one assay is T1, TRPML1 (Homo sapiens, UniProt Q9GZU1).
T1 construct: expressed in transfected cells; host or cells: HEK T-REx cells stably expressing GCaMP6f and TRPML1
In words: Cellular TRPML1 assay (FLIPR, GCaMP6f calcium read-out). It is filed as cell-based. In short, it runs like this: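 HEK T-REx cells stably expressing TRPML1 and GCaMP6f, seeded 24 h before in Optimem + 0.5% FBS. After ~10 min pre-incubation at room temperature, compounds in Ca2+-free Tyrode's buffer were injected on FLIPR Tetra (final DMSO 0.5%). Calcium fluorescence kinetics followed for 300 s.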

A further assay relates to TFEB. Kind of assay: TFEB translocation assay (TFEB reporter in U2OS cells, imaging). It is filed as cell-based. Particulars: Homo sapiens; U2OS cell line with TFEB reporter, 2 hours incubation, nucleus to cytoplasm ratio, normalized to Torin-1; read-out: TFEB Translocation pEC50 (converted). In short, it runs like this: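 U2OS cells stably expressing mRFP-fused TFEB reporter, switched to Opti-MEM then treated 2 h at 37 °C with compounds (0.5% DMSO, 0.015% Tween 80). Hoechst-stained, PFA-fixed cells imaged at 20×; nucleus/cytoplasm intensity ratio per well normalized to Torin-1 (100%) and DMSO (0%).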

Where [1] appears, read: HEKT-REx/GCaMP6f/TRPML1 cells, FLIPR TETRA, kinetic response over 300 seconds, read-out: TRPML1 FLIPR pEC50 (converted).

T1 sequence (Q9GZU1 whole entry): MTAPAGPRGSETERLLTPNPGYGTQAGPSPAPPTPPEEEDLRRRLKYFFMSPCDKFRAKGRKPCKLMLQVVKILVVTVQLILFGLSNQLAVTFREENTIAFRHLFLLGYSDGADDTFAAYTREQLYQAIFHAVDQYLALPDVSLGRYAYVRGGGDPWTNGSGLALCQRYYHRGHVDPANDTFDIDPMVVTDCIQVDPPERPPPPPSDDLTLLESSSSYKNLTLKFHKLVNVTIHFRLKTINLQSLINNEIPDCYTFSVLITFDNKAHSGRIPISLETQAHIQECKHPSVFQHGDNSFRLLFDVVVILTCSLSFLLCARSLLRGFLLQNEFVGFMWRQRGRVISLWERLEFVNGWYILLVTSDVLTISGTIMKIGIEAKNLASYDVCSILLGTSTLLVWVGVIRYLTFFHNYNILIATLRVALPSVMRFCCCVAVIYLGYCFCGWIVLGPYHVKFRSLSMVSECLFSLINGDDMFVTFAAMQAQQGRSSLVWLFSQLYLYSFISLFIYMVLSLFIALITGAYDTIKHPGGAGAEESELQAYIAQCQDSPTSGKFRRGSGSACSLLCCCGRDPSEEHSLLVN

`O=C(Nc1cc(F)c(OC2CC3C[C@@H]3C2)c(F)c1)c1nc(N2CCC3CCCC32)oc1CC(F)(F)F` (stereo partly drawn) [Example 185, N-(4-(cis-bicyclo[3.1.0]hexan-3-yloxy)-3,5-difluorophenyl)-2-(hexahydrocyclopenta[b]pyrrol-1(2H)-yl)-5-(2,2,2-trifluoroethyl)oxazole-4-carboxamide]: the EC50 on TRPML1 (setting [1]) and with TFEB was 10 to 1000 nM throughout.
As for `O=C(Nc1cc(F)c(OC2CC3C[C@@H]3C2)c(F)c1)c1nc(N2CC3COCC3C2)oc1CC(F)(F)F` (stereo partly drawn) [Example 186, N-(4-(cis-bicyclo[3.1.0]hexan-3-yloxy)-3,5-difluorophenyl)-2-(tetrahydro-1H-furo[3,4-c]pyrrol-5(3H)-yl)-5-(2,2,2-trifluoroethyl)oxazole-4-carboxamide], the EC50 on TRPML1 (setting [1]) and with TFEB was 10 to 1000 nM throughout.
`Cc1cc(NC(=O)c2nc(N3CCCC3)oc2CC(F)(F)F)cc(F)c1NC1CC2CC(C2)C1` (centres unmarked) [Example 193, N-(4-(bicyclo[3.1.1]heptan-3-ylamino)-3-fluoro-5-methylphenyl)-2-(pyrrolidin-1-yl)-5-(2,2,2-trifluoroethyl)oxazole-4-carboxamide]: the EC50 at TRPML1 (setting [1]) and with TFEB was 10 to 1000 nM each time.
As to `COC1(C)CN(c2nc(C(=O)Nc3cc(C)c(NC4C5CCCC4CC5)c(F)c3)c(CC(F)(F)F)o2)C1` (centres unmarked) [Example 195, N-(4-(bicyclo[3.2.1]octan-8-ylamino)-3-fluoro-5-methylphenyl)-2-(3-methoxy-3-methylazetidin-1-yl)-5-(2,2,2-trifluoroethyl)oxazole-4-carboxamide], the EC50 on TRPML1 (setting [1]) and in the assay on TFEB was 10 to 1000 nM throughout.
Consider `COC1(C)CN(c2nc(C(=O)Nc3cc(F)c(N4C5CCCC4CC5)c(C#N)c3)c(CC(F)(F)F)o2)C1` [Example 196, N-(4-(8-azabicyclo[3.2.1]octan-8-yl)-3-cyano-5-fluorophenyl)-2-(3-methoxy-3-methylazetidin-1-yl)-5-(2,2,2-trifluoroethyl)oxazole-4-carboxamide], for which the EC50 at TRPML1 and in the assay with TFEB was 10 to 1000 nM in each case.
With `COC1(C)CN(c2nc(C(=O)Nc3ccc(N4C5CCCC4CC5)c(C#N)c3)c(CC(F)(F)F)o2)C1` [Example 197, N-(4-(8-azabicyclo[3.2.1]octan-8-yl)-3-cyanophenyl)-2-(3-methoxy-3-methylazetidin-1-yl)-5-(2,2,2-trifluoroethyl)oxazole-4-carboxamide], the EC50 at TRPML1 and in the assay with TFEB was 10 to 1000 nM each time.
On to `CC1(C)CN(c2nc(C(=O)Nc3cc(F)c(N4C5CCCC4CC5)c(F)c3)c(CC(F)(F)F)o2)C1` [Example 200, N-(4-(8-azabicyclo[3.2.1]octan-8-yl)-3,5-difluorophenyl)-2-(3,3-dimethylazetidin-1-yl)-5-(2,2,2-trifluoroethyl)oxazole-4-carboxamide], for which the EC50 on TRPML1 and with TFEB was 10 to 1000 nM each time.
For `O=C(Nc1cc(F)c(N2C3CCCC2CC3)c(F)c1)c1nc(N2CC3COCC3C2)oc1CC(F)(F)F` (centres unmarked) [Example 201, N-(4-(8-azabicyclo[3.2.1]octan-8-yl)-3,5-difluorophenyl)-2-(tetrahydro-1H-furo[3,4-c]pyrrol-5(3H)-yl)-5-(2,2,2-trifluoroethyl)oxazole-4-carboxamide], the EC50 on TRPML1 and with TFEB was 10 to 1000 nM in each case.
For `O=C(Nc1ccc(N2CC3CC(C3)C2)c(F)c1)c1nc(N2CCC3(COC3)C2)oc1CC(F)(F)F` [Example 202, N-(4-(3-azabicyclo[3.1.1]heptan-3-yl)-3-fluorophenyl)-2-(2-oxa-6-azaspiro[3.4]octan-6-yl)-5-(2,2,2-trifluoroethyl)oxazole-4-carboxamide], the EC50 at TRPML1 and in the assay with TFEB was 10 to 1000 nM throughout.
As to `CCC1(OC)CN(c2nc(C(=O)Nc3cc(F)c(N4CC5CC(C5)C4)c(F)c3)c(CC(F)(F)F)o2)C1` [Example 203, N-(4-(3-azabicyclo[3.1.1]heptan-3-yl)-3,5-difluorophenyl)-2-(3-ethyl-3-methoxyazetidin-1-yl)-5-(2,2,2-trifluoroethyl)oxazole-4-carboxamide], the EC50 on TRPML1 and in the assay with TFEB was 10 to 1000 nM each time.
